Experimental data reported in patent US20080194546A1, “Pyrido-, Pyrazo- and Pyrimido-Pyrimidine Derivatives as mTOR Inhibitors” (KuDOS Pharmaceuticals Limited, priority 2005, published 2008).

Biological target: T1, mTOR (Homo sapiens, UniProt P42345)
T1 construct: mTOR protein was isolated from HeLa cell cytoplasmic extract by immunoprecipitation; endogenous in cells; host or cells: HeLa cell cytoplasmic extract (immunoprecipitate)
Assay: Biological Assay: mTOR enzyme activity, mTOR immunoprecipitated from HeLa cell cytoplasmic extract, recombinant PHAS-1 as substrate
Assay type: biochemical
Settings: Biological Assay, upper bounds; read-out: IC50 values against mTOR

| IC50 | SMILES |
| --- | --- |
| < 10000 nM | CC1CCCCN1c1nc(N2CCOCC2)c2ccc(-c3ccccc3)nc2n1 (stereo not shown) [1 h] |
| < 1000 nM | C[C@@H]1CN(c2nc(N3CCOCC3)c3ccc(-c4ccoc4)nc3n2)C[C@H](C)O1 [Example 1aa] |
| < 1000 nM | CC(=O)Nc1cccc(-c2ccc3c(N4CCOCC4)nc(N4C[C@@H](C)O[C@@H](C)C4)nc3n2)c1 [Example 1ab] |
| < 1000 nM | C[C@@H]1CN(c2nc(N3CCOCC3)c3ccc(-c4ccncc4)nc3n2)C[C@H](C)O1 [Example 1ac] |
| < 1000 nM | C[C@@H]1CN(c2nc(N3CCOCC3)c3ccc(-c4cnn(C)c4)nc3n2)C[C@H](C)O1 [Example 1ad] |
| < 1000 nM | COc1ccc(-c2ccc3c(N4C[C@@H](C)O[C@@H](C)C4)nc(N4CCOCC4)nc3n2)cc1CO [Example 1ae] |
| < 1000 nM | COCCN(CCOC)c1nc(N2CCOCC2)c2ccc(-c3ccc(OC)c(CO)c3)nc2n1 [Example 1af] |
| < 1000 nM | CC(=O)c1ccc(-c2ccc3c(N4CCOCC4)nc(N4C[C@@H](C)O[C@@H](C)C4)nc3n2)s1 [Example 1ag] |
| < 1000 nM | COc1ccc(-c2ccc3c(N4CCOCC4)nc(N4C[C@@H](C)O[C@@H](C)C4)nc3n2)cc1OC [Example 1ah] |
| < 1000 nM | C[C@@H]1CN(c2nc(N3CCOCC3)c3ccc(-c4cccc(C(N)=O)c4)nc3n2)C[C@H](C)O1 [Example 1ai] |
| < 1000 nM | Cc1cccc(-c2ccc3c(N4CCOCC4)nc(N4C[C@@H](C)O[C@@H](C)C4)nc3n2)c1 [Example 1aj] |
| < 10000 nM | C[C@@H]1CN(c2nc(N3CCOCC3)c3ccc(-c4ccc5c(c4)OCO5)nc3n2)C[C@H](C)O1 [Example 1ak] |
| < 1000 nM | C[C@@H]1CN(c2nc(N3CCOCC3)c3ccc(-c4ccc(Cl)s4)nc3n2)C[C@H](C)O1 [Example 1al] |
| < 1000 nM | COC(=O)c1cccc(-c2ccc3c(N4CCOCC4)nc(N4C[C@@H](C)O[C@@H](C)C4)nc3n2)c1 [Example 1am] |
| < 1000 nM | C[C@@H]1CN(c2nc(N3CCOCC3)c3ccc(-c4cccc5ccccc45)nc3n2)C[C@H](C)O1 [Example 1an] |
| < 1000 nM | C[C@@H]1CN(c2nc(N3CCOCC3)c3ccc(-c4ccc(OC(F)(F)F)cc4)nc3n2)C[C@H](C)O1 [Example 1ao] |
| < 1000 nM | C[C@@H]1CN(c2nc(N3CCOCC3)c3ccc(-c4ccc(C=O)s4)nc3n2)C[C@H](C)O1 [Example 1ap] |
| < 1000 nM | CC(=O)c1ccc(-c2ccc3c(N4CCOCC4)nc(N4C[C@@H](C)O[C@@H](C)C4)nc3n2)cc1 [Example 1aq] |
| < 1000 nM | C[C@@H]1CN(c2nc(N3CCOCC3)c3ccc(-c4ccc(C(=O)O)s4)nc3n2)C[C@H](C)O1 [Example 1ar] |
| < 1000 nM | C[C@@H]1CN(c2nc(N3CCOCC3)c3ccc(-c4cccc(N5CCOCC5)c4)nc3n2)C[C@H](C)O1 [Example 1as] |
| < 1000 nM | C[C@@H]1CN(c2nc(N3CCOCC3)c3ccc(-c4ccc5c(c4)OCCO5)nc3n2)C[C@H](C)O1 [Example 1at] |
| < 10000 nM | C[C@@H]1CN(c2nc(N3CCOCC3)c3ccc(-c4cccc5cccnc45)nc3n2)C[C@H](C)O1 [Example 1ay] |
| < 10000 nM | C[C@@H]1CN(c2nc(N3CCOCC3)c3ccc(-c4cncnc4)nc3n2)C[C@H](C)O1 [Example 1az] |
| < 10000 nM | C[C@@H]1CN(c2nc(N3CCOCC3)c3ccc(-c4ccc5c(c4)OCCCO5)nc3n2)C[C@H](C)O1 [Example 1ba] |
| < 100 nM | CCC1CCCCN1c1nc(N2CCOCC2)c2ccc(-c3ccc(OC)c(CO)c3)nc2n1 (stereo not shown) [Example 1bc] |

| IC50 | SMILES |
| --- | --- |
| < 100 nM | Cc1ccc(-c2ccc3c(N4CCOCC4)nc(N4C[C@@H](C)O[C@@H](C)C4)nc3n2)cc1 [Example 1d] |
| < 100 nM | COc1ccc(-c2ccc3c(N4CCOCC4)nc(N4C[C@@H](C)O[C@@H](C)C4)nc3n2)cc1 [Example 1e] |
| < 100 nM | C[C@@H]1CN(c2nc(N3CCOCC3)c3ccc(-c4ccsc4)nc3n2)C[C@H](C)O1 [Example 1i] |
| < 100 nM | C[C@@H]1CN(c2nc(N3CCOCC3)c3ccc(-c4ccc(O)cc4)nc3n2)C[C@H](C)O1 [Example 1l] |
| < 100 nM | C[C@@H]1CN(c2nc(N3CCOCC3)c3ccc(-c4ccc(C#N)cc4)nc3n2)C[C@H](C)O1 [Example 1n] |
| < 100 nM | COc1ccc(-c2ccc3c(N4CCOCC4)nc(N(CCO)CCO)nc3n2)cc1CO [Example 1o] |
| < 100 nM | COc1ccc(-c2ccc3c(N4C[C@@H](C)O[C@@H](C)C4)nc(N4CCOC[C@@H]4C)nc3n2)cc1CO [Example 1p] |
| < 100 nM | C[C@@H]1CN(c2nc(N3CCOCC3)c3ccc(-c4cccc(CO)c4)nc3n2)C[C@H](C)O1 [Example 1q] |
| < 1000 nM | Cc1ccc(-c2ccc3c(N4CCOCC4)nc(N4CCCC[C@@H]4C)nc3n2)cc1 [Example 1s] |
| < 1000 nM | Cc1ccc(-c2ccc3c(N4CCOCC4)nc(N4C[C@@H](C)O[C@@H](C)C4)nc3n2)s1 [Example 1t] |
| < 1000 nM | COc1ccc(-c2ccc3c(N4CCOCC4)nc(N4CCCC[C@@H]4C)nc3n2)cc1 [Example 1u] |
| < 1000 nM | Cc1cscc1-c1ccc2c(N3CCOCC3)nc(N3C[C@@H](C)O[C@@H](C)C3)nc2n1 [Example 1v] |
| < 1000 nM | COc1ccc(-c2ccc3c(N4CCOCC4)nc(N4C[C@@H](C)O[C@@H](C)C4)nc3n2)cc1F [Example 1w] |
| < 1000 nM | C[C@@H]1CN(c2nc(N3CCOCC3)c3ccc(-c4ccc5[nH]ccc5c4)nc3n2)C[C@H](C)O1 [Example 1x] |
| < 1000 nM | Cc1cc(-c2ccc3c(N4CCOCC4)nc(N4C[C@@H](C)O[C@@H](C)C4)nc3n2)cs1 [Example 1y] |
| < 1000 nM | C[C@@H]1CN(c2nc(N3CCOCC3)c3ccc(-c4ccc([N+](=O)[O-])cc4)nc3n2)C[C@H](C)O1 [Example 1z] |
| < 1000 nM | C[C@@H]1CN(c2nc(N3CCOCC3)c3ccc(Nc4ccccc4)nc3n2)C[C@H](C)O1 [Example 2a] |
| < 1000 nM | C[C@@H]1CN(c2nc(N3CCOCC3)c3ccc(Nc4ccc(Cl)cc4O)nc3n2)C[C@H](C)O1 [Example 2aa] |
| < 1000 nM | C[C@@H]1CN(c2nc(N3CCOCC3)c3ccc(Nc4cc(F)c(F)cc4[N+](=O)[O-])nc3n2)C[C@H](C)O1 [Example 2ac] |
| < 1000 nM | CSc1nc2ccc(Nc3ccc4c(N5CCOCC5)nc(N5C[C@@H](C)O[C@@H](C)C5)nc4n3)cc2s1 [Example 2ad] |
| < 10000 nM | C[C@@H]1CN(c2nc(N3CCOCC3)c3ccc(Nc4ccc(C5SCCS5)cc4)nc3n2)C[C@H](C)O1 [Example 2ae] |
| < 1000 nM | C[C@@H]1CN(c2nc(N3CCOCC3)c3ccc(NC4CCCCC4)nc3n2)C[C@H](C)O1 [Example 2af] |
| < 10000 nM | C[C@@H]1CN(c2nc(N3CCOCC3)c3ccc(NC4CCCC4)nc3n2)C[C@H](C)O1 [Example 2ag] |
| < 1000 nM | C[C@@H]1CN(c2nc(N3CCOCC3)c3ccc(NC4CC4)nc3n2)C[C@H](C)O1 [Example 2ah] |
| < 10000 nM | C[C@@H]1CN(c2nc(N3CCOCC3)c3ccc(NC4CCC4)nc3n2)C[C@H](C)O1 [Example 2ai] |

| IC50 | SMILES |
| --- | --- |
| < 10000 nM | C[C@@H]1CN(c2nc(N3CCOCC3)c3ccc(NCC4CC4)nc3n2)C[C@H](C)O1 [Example 2aj] |
| < 10000 nM | CC1CCC(Nc2ccc3c(N4CCOCC4)nc(N4C[C@@H](C)O[C@@H](C)C4)nc3n2)CC1 (stereo partly shown) [Example 2al] |
| < 10000 nM | C=CCNc1ccc2c(N3CCOCC3)nc(N3C[C@@H](C)O[C@@H](C)C3)nc2n1 [Example 2am] |
| < 10000 nM | COC(=O)c1ccc(Nc2ccc3c(N4CCOCC4)nc(N4C[C@@H](C)O[C@@H](C)C4)nc3n2)o1 [Example 2an] |
| < 10000 nM | Cc1nnc(Nc2ccc3c(N4CCOCC4)nc(N4C[C@@H](C)O[C@@H](C)C4)nc3n2)o1 [Example 2ao] |
| < 1000 nM | C[C@@H]1CN(c2nc(N3CCOCC3)c3ccc(Nc4oc(-c5ccccc5)cc4C#N)nc3n2)C[C@H](C)O1 [Example 2ap] |
| < 1000 nM | C[C@@H]1CN(c2nc(N3CCOCC3)c3ccc(Nc4ccsc4)nc3n2)C[C@H](C)O1 [Example 2aq] |
| < 1000 nM | C[C@@H]1CN(c2nc(N3CCOCC3)c3ccc(Nc4nc[nH]c4C#N)nc3n2)C[C@H](C)O1 [Example 2ar] |
| < 1000 nM | COC(=O)c1cc(Nc2ccc3c(N4CCOCC4)nc(N4C[C@@H](C)O[C@@H](C)C4)nc3n2)cn1C [Example 2as] |
| < 10000 nM | C[C@@H]1CN(c2nc(N3CCOCC3)c3ccc(Nc4nc5cncnc5[nH]4)nc3n2)C[C@H](C)O1 [Example 2au] |
| < 1000 nM | C[C@@H]1CN(c2nc(N3CCOCC3)c3ccc(Nc4nccc5cccnc45)nc3n2)C[C@H](C)O1 [Example 2av] |
| < 1000 nM | C[C@@H]1CN(c2nc(N3CCOCC3)c3ccc(Nc4ccnc(-c5cccnc5)n4)nc3n2)C[C@H](C)O1 [Example 2aw] |
| < 1000 nM | C[C@@H]1CN(c2nc(N3CCOCC3)c3ccc(Nc4nccc(-c5ccco5)n4)nc3n2)C[C@H](C)O1 [Example 2ax] |
| < 10000 nM | C[C@@H]1CN(c2nc(N3CCOCC3)c3ccc(Nc4ccc5cccc(O)c5n4)nc3n2)C[C@H](C)O1 [Example 2ay] |
| < 1000 nM | C[C@@H]1CN(c2nc(N3CCOCC3)c3ccc(Nc4cccnc4)nc3n2)C[C@H](C)O1 [Example 2az] |
| < 100 nM | C[C@@H]1CN(c2nc(N3CCOCC3)c3ccc(Nc4ccncc4)nc3n2)C[C@H](C)O1 [Example 2ba] |
| < 1000 nM | C[C@@H]1CN(c2nc(N3CCOCC3)c3ccc(Nc4ccncn4)nc3n2)C[C@H](C)O1 [Example 2bb] |
| < 10000 nM | C[C@@H]1CN(c2nc(N3CCOCC3)c3ccc(Nc4cnccn4)nc3n2)C[C@H](C)O1 [Example 2bc] |
| < 1000 nM | Cc1ccc(Nc2ccc3c(N4CCOCC4)nc(N4C[C@@H](C)O[C@@H](C)C4)nc3n2)nc1 [Example 2bd] |
| < 1000 nM | Cc1cccc(Nc2ccc3c(N4CCOCC4)nc(N4C[C@@H](C)O[C@@H](C)C4)nc3n2)n1 [Example 2be] |
| < 10000 nM | Cc1cccnc1Nc1ccc2c(N3CCOCC3)nc(N3C[C@@H](C)O[C@@H](C)C3)nc2n1 [Example 2bg] |
| < 10000 nM | C[C@@H]1CN(c2nc(N3CCOCC3)c3ccc(N(C)C)nc3n2)C[C@H](C)O1 [Example 2d] |
| < 10000 nM | C[C@@H]1CN(c2nc(N3CCOCC3)c3ccc(Nc4cccc5cnccc45)nc3n2)C[C@H](C)O1 [Example 2f] |
